Each structure is given as a SMILES string.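 Five compound concentrations were applied to cells in 96-well plates for 48 hours; endpoints were derived by simple linear interpolation of the resulting dose-response curve. Abbreviation: GI50, concentration required for 50% inhibition of growth. TGI denotes the concentration required for complete inhibition of growth.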 Where only a bound is given, the exact number is not on record here.

Holding throughout (assay): inhibition of tumour cell growth, NCI panel, 48 h
The test system of test [1] is CAKI-1 renal.
Test [2] deals with CCRF-CEM leukemia.
Test [3] deals with COLO 205 colon.
Test [4] relates to K-562 leukemia.
In test [5] the test system is MDA-MB-231 breast.
For test [6], the system named is NCI/ADR-RES ovarian.
Test [7] deals with OVCAR-4 ovarian.
The test system of test [8] is SF-295 CNS.
For test [9], the system named is SW-620 colon.
The subject of test [10] is U251 CNS.

`CCOc1ccc2cc(-c3nn(CC4CCN(C)CC4)c4ncnc(N)c34)ccc2c1`: the GI50 in test [1] was 11.1 µM; in test [2], 16.8 µM; in test [3], 11.9 µM; in [4], 11.6 µM; in test [5], 4.52 µM; in test [6] it was 14.7 µM. In addition, the GI50 was 12.9 µM in test [7], 14.5 µM in [8], 15.7 µM in test [9] and 12.9 µM in [10]. In addition, the TGI came out at 25.8 µM in test [1]; 55.2 µM in test [2]; 26.7 µM in [3]; 27.7 µM in [4]; 18.4 µM in test [5]; 28.2 µM in [6]. Also, the TGI was found to be 29.7 µM in test [7], 29.2 µM in test [8], 31.7 µM in test [9] and 27.5 µM in test [10].
For the molecule `COc1ccc(N=c2nc3sc4cc(Cl)ccc4n3c(N)c2C#N)cc1`, the GI50 is 8.05 µM in test [1]; 11 µM in [2]; 2.39 µM in test [3]; 22.5 µM in test [4]; 3.12 µM in [5]; 2.95 µM in test [6]. The GI50 in test [7] was 3.51 µM; in [8], 2.51 µM; in test [9] it was 3.69 µM; in test [10] it was 4.38 µM. Moreover, the TGI in [1] is 78.3 µM; in test [2], over 100 µM; in test [3] it was 6.47 µM; in [4] it was over 100 µM; in test [5] it was 16.2 µM; in [6], 9.08 µM. The TGI in test [7] was over 100 µM; in [8], 23.1 µM; in [9], 29.7 µM; in test [10], over 100 µM.
As to `CC(C)(C)OC(=O)NCCCCCCCCCCCCn1c2c(c3ccccc3c1=O)C(=O)c1ccccc1-2`, the GI50 is 22 µM in test [1]; 43.3 µM in [2]; over 100 µM in [3]; 46.9 µM in test [4]; 21 µM in [5]; 51.2 µM in test [6]. The GI50 is over 100 µM in [7], 17.5 µM in test [8], over 100 µM in [9] and 36 µM in test [10]. Moreover, the TGI was 57.9 µM in test [1]; over 100 µM in test [2]; over 100 µM in test [3]; over 100 µM in [4]; 58.9 µM in test [5]; over 100 µM in test [6]. Further, the TGI was over 100 µM in [7], 53 µM in [8], over 100 µM in [9] and over 100 µM in test [10].
On to `Cn1cc(-c2csc(-c3ccc(Cl)cc3)n2)c2cccnc21`, for which the GI50 in test [1] was 6.99 µM; in [2], 18.4 µM; in [3] it was 13.7 µM; in test [4], 12.9 µM; in [5], 13.3 µM; in test [6] it was 15.8 µM. Moreover, the GI50 in test [7] was 21.9 µM; in test [8], 15.5 µM; in test [9] it was 15 µM; in [10], 14.6 µM. Besides, the TGI in [1] came to 25.6 µM; in test [2], 51.9 µM; in test [3] it was 26.6 µM; in test [4], 38.3 µM; in test [5], 33.3 µM; in test [6] it was 34.4 µM. In addition, the TGI in test [7] came to 60.8 µM; in test [8], 34.4 µM; in test [9], 29.3 µM; in test [10], 29.4 µM.
For the molecule `COc1ccc2c(c1)[n+](=O)c(/C=C/C(=O)c1cc(OC)c(OC)c(OC)c1)c(C)n2[O-]`, the GI50 in test [1] is 5.31 µM; in [2], 1.87 µM; in [3], 1.65 µM; in test [4] it was 2.59 µM; in test [5] it was 12.6 µM; in test [6] it was 11.3 µM. Besides, the GI50 in test [7] was 9.35 µM; in test [8], 44.8 µM; in [9] it was 4.03 µM; in test [10], 5.94 µM. In addition, the TGI was over 100 µM in test [1]; 8.08 µM in test [2]; 11.3 µM in [3]; over 100 µM in test [4]; 88.4 µM in [5]; 39.5 µM in [6]. The TGI was over 100 µM in test [7], over 100 µM in [8], 47.6 µM in test [9] and 47 µM in test [10].
`BrCc1ccc2ccc3ccc(CBr)nc3c2n1`: the TGI in test [1] was 12.7 µM; in [2] it was 3.75 µM; in test [3], 4.3 µM; in test [4] it was over 28.4 µM; in test [5], 6.86 µM; in [6], 5.15 µM. Also, the TGI in test [7] was found to be 12.3 µM; in test [8] it was 28.6 µM; in test [9] it was 5.86 µM; in test [10] it was 19 µM.
For `CCN(CC)c1ccc(/C=N/N=C(N)N)cc1`, the GI50 in test [1] is 6.73 µM; in test [2] it was 3.5 µM; in test [3], 1.79 µM; in test [4], 3.02 µM; in [5], 10.9 µM; in [6], 5.44 µM. Further, the GI50 in test [7] is 5.74 µM; in [8] it was 3.59 µM; in test [9], 3.08 µM; in test [10] it was 5.49 µM. The TGI in test [1] was over 100 µM; in test [2], 67.7 µM; in test [3] it was 3.51 µM; in test [4] it was 16.4 µM; in [5], 32.6 µM; in test [6], 29.8 µM. The TGI in [7] was determined as 39.5 µM; in [8], 15.8 µM; in [9], 13.6 µM; in test [10], 23.4 µM.
Consider `COc1c(OC2OC(C)C(O)C(O)C2O)c(OC)c2oc(-c3ccc(O)cc3)cc(=O)c2c1O` (stereo not given), for which the GI50 in test [1] is 27.6 µM; in [2], 31.4 µM; in [3], 29.3 µM; in test [4], 26.2 µM; in [5], 16.5 µM; in test [6], 87.2 µM. The GI50 was 29.7 µM in [7], 36.4 µM in test [8], 35.7 µM in test [9] and 30.2 µM in [10]. The TGI was over 100 µM in [1]; over 100 µM in [2]; over 100 µM in [3]; over 100 µM in [4]; 71.8 µM in [5]; over 100 µM in test [6]. For the same molecule, the TGI in test [7], in [8], in test [9] and in test [10] was over 100 µM each time.

Values taken from PubChem BioAssay (NCI).
